Experimental data: PMC12040169 (PLOS Biology, 2025)

Assay: in vitro
Conditions: human, hela cells, % viability

SMILES	viability at 28.5 h, 10 µM	viability at 28.5 h, 10 µM (bulk resorufin, single well)
O=C(O)C[C@@H]1CCN(C(=O)c2ccc3c(c2)OCO3)C[C@@H]1CC1=NCCc2ccccc21 [CBK289160]	110%	–
CCCc1ncc(C[n+]2ccccc2C)c(N)n1 [CBK024255C]	96.1%	–
Cc1nn(Cc2cccc(C(=O)NCc3ccccn3)c2)c(C)c1Cl [CBK265755]	97.7%	–
O=C(O)Cc1ccc(NC(=S)Nc2cccc(Cl)c2Cl)cc1 [CBK267064]	107%	–
CSc1nc(NC(=O)c2cccs2)cc(N2CCNCC2)n1 [CBK050315T]	89.7%	–
COc1cc(C#N)ccc1OCc1ccccc1 [CBK002577]	62%	–
COCC(=O)N[C@H]1C[C@H]2C(=O)Nc3ccccc3C(=O)N2C1 [CBK289353]	91.7%	–
CC(C)c1ccc(S(=O)(=O)Nc2ccc(O)c(Sc3nc[nH]n3)c2)cc1 [CBK266861]	90.8%	–
c1ccc(SCCCN2CCNCC2)cc1 [CBK266067G]	100%	–
Cc1cc(C(=O)CSc2nncs2)c(C)n1C(C)c1ccccc1 (stereo not drawn) [CBK297934]	86.8%	–
CCc1nccn1CCC(=O)NC(c1ccc(C)cc1)c1cccnc1 (stereo not drawn) [CBK282032]	103%	–
CCN(CC)C(=O)c1ccccc1NS(=O)(=O)c1ccc(F)cc1 [CBK045414]	87.7%	–
O=C(Cc1ccccc1)Nc1ccc(C(=O)O)cc1NC(=O)Cc1ccccc1 [CBK287049]	108%	–
CC(=O)N1CCc2nc(CC3CC3)nc(NCCn3ccnn3)c2CC1 [CBK306933]	94.7%	–
O=c1ccc2c(-c3ccccc3)ccnc2[nH]1 [CBK073723]	94.2%	–
CC(C)c1ccc(/C=C/C(=O)NCc2ccccc2)cc1 [CBK149635]	112%	–
O=C(C1CCC1)N1CCC(c2onc3c2CCCCC3)CC1 [CBK284496]	104%	–
COc1ccc(Cl)cc1NC(=O)CCN1CCN(C)CC1 [CBK278177C]	91%	–
COc1cc2nc(N3CCC4(CCN(C(=O)C(c5ccccc5)C(C)C)C4)C3)nc(N)c2cc1OC (stereo not drawn) [CBK160790]	76.3%	–
Cc1ccc(OCCn2cncc2-c2cn(C)nc2C)cc1 [CBK281626]	93.7%	–
COc1ccc(-c2ccc3c(c2)COC2(CCNCC2)O3)c(OC)c1 [CBK061344]	–	91.1%
COc1cc(C(C)=O)ccc1OCC(O)Cn1c(=O)n(-c2ccccc2)c(=O)c2ccccc21 (stereo not drawn) [CBK296677]	94.4%	–
Cc1ccccc1C(=O)N1C2CCC1CC(O)(Cn1ccnc1C)C2 (stereo not drawn) [CBK282740]	90.1%	–

SMILES	viability at 28.5 h, 10 µM	viability at 28.5 h, 10 µM (bulk resorufin, single well)
O=C(C1CN(S(=O)(=O)c2ccccc2)CCN1S(=O)(=O)c1ccccc1)N1CCCCC1 (stereo not drawn) [CBK262686]	86.4%	–
N#Cc1ccc(CNC(=O)N2CCCC(CO)C2)cc1 (stereo not drawn) [CBK156043]	94.3%	–
CCn1c(-c2ccc3c(c2)OCCO3)cnc1SCC(=O)c1cc(C)[nH]c1C [CBK297880]	89.4%	–
CC1CC(=O)c2cnc(Nc3ccccc3)nc2C1 (stereo not drawn) [CBK287884]	92.4%	–
O=C(Nc1cccc(C(=O)O)c1)/C(=C\c1ccco1)NC(=O)c1ccc(Br)cc1 [CBK263707]	91.3%	–
O=C1C(=CNCCC(c2ccccc2)c2ccccc2)C(=O)c2ccccc21 [CBK262987]	97%	–
Cc1cc(NS(=O)(=O)c2ccc(C(C)C)cc2)n[nH]1 [CBK044646]	106%	–
CCc1noc(C)c1C(=O)NCCN1CC(C)CC(C)C1 (stereo not drawn) [CBK282081]	113%	–
CN1CCN(CC(=O)Nc2ccc([N+](=O)[O-])cc2C(=O)c2ccccc2)CC1 [CBK265772]	104%	–
COc1ccc(-c2nc3ccc(C)cc3c(C(=O)NCCc3ccc(S(N)(=O)=O)cc3)c2C)cc1 [CBK267753]	123%	–
CC(=O)c1c(C)oc2c1cc(NS(=O)(=O)c1ccc(C(=O)O)cc1)c1ccccc12 [CBK299780]	92%	–
c1ccc(Sc2cccc3ccccc23)nc1 [CBK085856]	91.8%	–
OC[C@H]1CCCN1c1nc(Br)cn2c(-c3ccccn3)cnc12 [CBK094394]	100%	–
O=C(O)c1oc2ccccc2c1CN1CCN(c2ccccc2)CC1 [CBK286948]	115%	–
Cc1c(C(=O)N2CCN(C3CCCCC3)C(=O)C2)[nH]c2ccccc12 [CBK282539]	99.3%	–
O=C(N/N=C\c1cccs1)c1n[nH]c2c1CCCC2 [CBK261667]	110%	–
COCCNc1cc(-c2cccc(F)c2C(N)=O)c2cc[nH]c2n1 [CBK307682]	94.2%	–
OCCN1CCN(c2nccc(C(F)(F)F)n2)CC1 [CBK028754]	107%	–
COc1ccc(Nc2nc(-c3ccccc3)c(C)s2)c(OC)c1 [CBK131709]	106%	–
O=C(O)C1CCC1C(=O)N1CCN(c2nc3ccc(Cl)cc3s2)CC1 (stereo not drawn) [CBK057108]	92.4%	–
Cc1nn(-c2ccccc2)c2[nH]c(=O)c(CNC(C)(C)C)cc12 [CBK282921]	101%	–
O=C(NCCN1CCCC1)c1ccc2nc[nH]c2c1 [CBK153311]	86%	–
c1ccc2c(CCN3CCC(Oc4nccnc4OC4CCCCC4)CC3)c[nH]c2c1 [CBK082877T]	86.2%	–

SMILES	viability at 28.5 h, 10 µM	viability at 28.5 h, 10 µM (bulk resorufin, single well)
COc1ccc(C(=O)Nc2ccc3[nH]ccc3c2)cc1Cl [CBK159681]	94%	–
N#CC1(c2ccccc2)CCN(C(=O)c2ccccc2C(=O)c2ccccc2)CC1 [CBK091396]	–	107%
Cc1cnccc1-c1c[nH]nc1-c1cccc(CNS(=O)(=O)c2ccc(F)c(F)c2)c1 [CBK285627]	96%	–
COc1ccc(C(C)c2cc3c(cc2N)OCO3)cc1 (stereo not drawn) [CBK200102T]	87.2%	–
CCCCN(C)S(=O)(=O)NCc1cn2ccccc2n1 [CBK306329]	97.9%	–
Cc1ccc(-n2nnc3c(SCC(=O)Nc4ccc(F)cc4)ncnc32)cc1 [CBK287542]	112%	–
CC(C)N(CCc1cc2ccccc2o1)C(C)C [CBK011518C]	–	113%
C=C1C2(C(=O)NCCn3nc(C)c(Cl)c3C)CCC(C2)C1(C)C (stereo not drawn) [CBK281661]	81.5%	–
Cn1c(=O)[nH]c2c(nc(-c3ccccc3)n2C)c1=O [CBK287855]	78.2%	–
CC(C)Nc1cncc(OC2CCN(C)C2)n1 (stereo not drawn) [CBK115598]	90.8%	–
CC(=O)Nc1nc(OCC(F)(F)F)cnc1-c1cccc(C(=O)N(C)C)c1 [CBK145401]	96%	–
CO[C@]1(c2ccc(Cl)cc2)CC[C@H](NCCCC(=O)c2ccc(F)cc2)CC1 [CBK015959C]	90.2%	–
CO[C@@]12CC[C@H](OCC(=O)O)C[C@@H]1N(Cc1c(C)cnn1C)CC2 [CBK306638]	95.6%	–
COCOc1ccc(-c2ncc(OCCN3CCOCC3)nc2N)cc1 [CBK145100]	87.7%	–
Cc1oc(-c2ccccc2)cc1C(=O)Nc1c(F)cc(F)cc1OC1CCNCC1 [CBK050326T]	89.8%	–
COc1ccccc1C1CC(c2ccccc2)=NN1C(=O)CCC(=O)O (stereo not drawn) [CBK287088]	83.4%	–
O=C(Oc1cccc2cnccc12)c1ccccc1 [CBK022889C]	105%	–
COc1ccc(C)cc1S(=O)(=O)Nc1cc(NCCCN2CCOCC2)c2occc2c1 [CBK067837C]	105%	–
O=C(c1cncc(O)c1)N1C2CCC1CC(c1ccc(F)cc1)C2 (stereo not drawn) [CBK283764]	96.4%	–
O=C1NC(=S)N(c2ccc(F)cc2)C(=O)/C1=C\NC1CCN(Cc2ccccc2)CC1 [CBK261825]	–	93%
O=C(NC1CC2(CCOCC2)Oc2ccccc21)c1cccs1 (stereo not drawn) [CBK285377]	85.6%	–
CCCCN(C)c1c(CC)nc2ccc(C(=O)NCCN3CCCC3)cn12 [CBK145440]	96.2%	–
COc1ccc(C2c3cc(OC)c(OC)cc3CC(=O)N2c2ccc(C(=O)O)cc2)cc1 (stereo not drawn) [CBK296074]	93.6%	–

SMILES	viability at 28.5 h, 10 µM	viability at 28.5 h, 10 µM (bulk resorufin, single well)
CC(C)(C)c1ccc(OCC(O)Cn2c(CO)nc3ccccc32)cc1 (stereo not drawn) [CBK293973]	81.7%	–
COc1ccc(CN[C@@H]2CCC[C@H]2Cc2cc(C)no2)cc1 [CBK285401]	94.4%	–
CCOc1cc(C)c(Cl)cc1S(=O)(=O)NCc1ccncc1 [CBK269954]	85.8%	–
CCC(c1ccc(F)cc1)n1cncc1-c1cnn(C)c1 (stereo not drawn) [CBK281883]	95.7%	–
CCOC(=O)C1CCCCN1S(=O)(=O)c1ccc(Br)s1 (stereo not drawn) [CBK096110]	102%	–
CCNC(=O)NCc1ccc(F)cc1 [CBK115581]	84.9%	–
O=C1COc2ccccc2C/C=C/CC2(CCCN(C(=O)Cn3ccnc3)C2)CN1 (stereo not drawn) [CBK292050]	107%	–
CC(C)CC(NC(=O)N1CCOc2ccc(Cl)cc2C1)c1ncnn1C (stereo not drawn) [CBK306544]	115%	–
O=S(=O)(c1cc(Cl)ccc1Cl)N1CCSC1 [CBK097980]	99.4%	–
CC1(C)C/C(=N/O)c2cc3c(nc2C1)CC(C)(C)C/C3=N\O [CBK261629]	106%	–
CC(=O)Nc1cccc(-n2nnnc2SCCCc2nc3ccccc3o2)c1 [CBK298317]	85.5%	–
OCCN1CCN(c2nc(-c3ccc4c(c3)OCO4)cn3ccnc23)CC1 [CBK037443]	99.1%	–
CCn1cncc1CN(CCCn1ccnc1)CC1CC=CCC1 (stereo not drawn) [CBK283220]	101%	–
COc1ccc(C)cc1N1CCCN(c2cc(C)ccc2OC)C1=O [CBK006937]	84.8%	–
CC(C)Nc1cncc(OCCN2CCOCC2)n1 [CBK115599]	109%	–
NC(=O)c1cc2c(OCCCN3CCN(C(c4ccccc4)c4ccccc4)CC3)cccc2[nH]1 [CBK016544]	96%	–
O=C(NCc1ccc(Cl)cc1)c1cc(-c2ccc(F)cc2)nc2ccccc12 [CBK294451]	111%	–
COC(=O)N1CC2(CCCCC2NCc2c[nH]c(C)n2)c2ccccc21 (stereo not drawn) [CBK083547T]	108%	–
COC(=O)COc1ccc(NC(=O)c2ccc([N+](=O)[O-])c(C)c2)cc1 [CBK268338]	103%	–
Cc1csc(C2CN(Cc3cn(C)c(=O)n(C)c3=O)CCO2)n1 (stereo not drawn) [CBK305475]	86.6%	–
COc1ccc(F)cc1-c1ccccc1CC1(C(=O)NCCc2ccccc2)CCOCC1 [CBK286424]	97.5%	–
